Consider 27 compounds from patent US9873690B2, “3-indol substituted derivatives, pharmaceutical compositions and methods for use” (Pfizer Inc., priority 2015, dated 2018).

T1 sequence (P48775 whole entry): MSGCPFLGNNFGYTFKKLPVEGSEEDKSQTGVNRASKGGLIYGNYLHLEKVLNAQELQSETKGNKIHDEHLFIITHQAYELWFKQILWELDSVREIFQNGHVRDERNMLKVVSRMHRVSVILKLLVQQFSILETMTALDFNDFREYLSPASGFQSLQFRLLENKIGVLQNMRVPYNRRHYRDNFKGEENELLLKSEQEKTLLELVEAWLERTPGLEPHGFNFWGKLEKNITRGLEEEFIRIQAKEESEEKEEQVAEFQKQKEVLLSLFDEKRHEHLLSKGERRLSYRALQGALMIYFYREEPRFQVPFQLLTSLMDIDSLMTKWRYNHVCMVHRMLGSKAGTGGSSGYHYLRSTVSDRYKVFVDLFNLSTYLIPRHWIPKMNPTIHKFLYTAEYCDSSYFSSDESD

The assay concerns the target T1, hTDO2 (Homo sapiens, UniProt P48775).
T1 construct: endogenous in cells; host or cells: A172 human brain glioblastoma cells (ATCC CRL-1620)
Put plainly: Cellular assay for TDO2 activity determination in A172 cells. The format is cell-based. To be noted: human glioblastoma A172 cells naturally expressing hTDO2; overnight incubation; kynurenine by absorbance at 480 nm. As to the method:
The compounds of formula I inhibit the activity of human TDO2 in cells that constitutively express TDO2, such as A172 cells. A172 is a cell line derived from human brain glioblastoma cells. The cells are available from the American Type Culture Collection (ATCC®) as CRL-1620™.
The assay (adapted from Pilotte L et al., Proc Natl Acad Sci USA, 2012, 109(7), 2497-502) was performed in 96-well flat bottom plates seeded with human glioblastoma A172 cells, naturally expressing hTDO2 (prepared as described in Tilman et al., Mol Cancer, 2007, 17(6), 80), at a concentration of 1.25×10^4 cells/well in a final volume of 200 μL. To determine TDO, the cells were incubated overnight at 37° C. at 5% CO2 in IMDM (Invitrogen) supplemented with 2% FBS and 2% penicillin/streptomycin in the presence of the compounds of the present invention, at different concentrations.
The plates were then centrifuged 5 min at 1000 rpm, and 100 μL of the supernatant were collected in a conical plate, 30 μL of TCA 30% were added and a further centrifuged at 3000×g for 10 minutes. 100 μL of the supernatant were collected in a flat bottomed plate and 100 μL of 2% (w/v) 4-(dimethylamino)-benzaldehyde in acetic acid and incubated for 5 min at room temperature. Kynurenine concentrations were determined by measuring the absorbance at 480 nm. A standard curve was made with pure kynurenine. The TDO activity was measured as described above using ten serial concentrations of the compounds of the present invention. Data were fitted using the Prism™ software (GraphPad Software, Inc.) using standard parameters.
The biological activity of representative compounds in human brain glioblastoma cells as determined in the above-referenced assay is summarized in the following table: […]
On to `CC1c2cc(-c3c[nH]c4cc(F)ccc34)ccc2S(=O)(=O)N1C[C@H](O)CO` (single isomer, unassigned; (+)) [Example 96], for which half-maximal inhibition (IC50) was put at 30 nM. The value for `CC1c2cc(-c3c[nH]c4cc(F)ccc34)ccc2S(=O)(=O)N1CCC(=O)N1CCNCC1` (single isomer, unassigned; (+)) [Example 49, (+)-3-(5-(6-fluoro-1H-indol-3-yl)-3-methyl-1,1-dioxido-benzo [d]isothiazol-2(3H)-yl)-1-(piperazin-1-yl)propan-1-one] was 91 nM.

For `CC1c2cc(-c3c[nH]c4cc(F)ccc34)ccc2S(=O)(=O)N1CC[S+](C)[O-]` (single isomer, unassigned; (-)) [Example 56, (−)-5-(6-fluoro-1H-indol-3-yl)-3-methyl-2-(2-(methylsulfinyl)ethyl)-2,3-dihydrobenzo[d]isothiazole 1,1-dioxide], the IC50 came to 306 nM. Then `CCCC1NS(=O)(=O)c2ccc(-c3c[nH]c4cc(F)ccc34)cc21` (single isomer, unassigned; (+)) [Example 6, (+)-5-(6-fluoro-1H-indol-3-yl)-3-propyl-2,3-dihydrobenzo[d]isothiazole 1,1-dioxide], with 367 nM; and `O=S1(=O)c2ccc(-c3c[nH]c4cc(F)ccc34)cc2C(CO)N1CCO` (single isomer, unassigned; (+)) [Example 131, (+)-5-(6-fluoro-1H-indol-3-yl)-2-(2-hydroxyethyl)-3-(hydroxymethyl)-2,3-dihydrobenzo[d]isothiazole 1,1-dioxide], with 182 nM. The value for `Cc1cc(O)n(CCN2C(C)c3cc(-c4c[nH]c5cc(F)ccc45)ccc3S2(=O)=O)n1` (single isomer, unassigned; (+)) [Example 67, (+)-5-(6-fluoro-1H-indol-3-yl)-2-(2-(5-hydroxy-3-methyl-1H-pyrazol-1-yl)ethyl)-3-methyl-2,3-dihydrobenzo[d]isothiazole 1,1-dioxide] was 9500 nM; that for `CC1c2cc(-c3c[nH]c4cc(F)ccc34)ccc2S(=O)(=O)N1CCS(N)(=O)=O` (single isomer, unassigned; (+)) [Example 61, (+)-2-(5-(6-fluoro-1H-indol-3-yl)-3-methyl-1,1-dioxidobenzo[d]isothiazol-2(3H)-yl)ethane-1-sulfonamide] was 309 nM; that for `CNC(=O)C(CN1C(C)c2cc(-c3c[nH]c4cc(F)ccc34)ccc2S1(=O)=O)OC` (single isomer, unassigned; (-)) [Example 106, (−)-3-(5-(6-fluoro-1H-indol-3-yl)-3-methyl-1,1-dioxidobenzo[d]isothiazol-2(3H)-yl)-2-methoxy-N-methylpropanamide] was 507 nM. As to `O=S1(=O)NC2(CC2)c2cc(-c3c[nH]c4cc(F)ccc34)ccc21` [Example 136, 5-(6-fluoro-1H-indol-3-yl)-2H-spiro[benzo[d]-isothiazole-3,1′-cyclopropane] 1,1-dioxide], the IC50 stood at 233 nM. Then `CCCC1NS(=O)(=O)c2ccc(-c3c[nH]c4cc(F)ccc34)cc21` (single isomer, unassigned; (-)) [Example 7, (−)-5-(6-fluoro-1H-indol-3-yl)-3-propyl-2,3-dihydrobenzo[d]isothiazole 1,1-dioxide], with 1450 nM. With `CC1c2cc(-c3c[nH]c4cc(F)ccc34)ccc2S(=O)(=O)N1Cc1ncn(C)n1` (single isomer, unassigned; (+)) [Example 86, (+)-5-(6-fluoro-1H-indol-3-yl)-3-methyl-2-((1-methyl-1H-1,2,4-triazol-3-yl)methyl)-2,3-dihydrobenzo[d]isothiazole 1,1-dioxide], half-maximal inhibition (IC50) was put at 97 nM. The value for `CC1c2cc(-c3c[nH]c4cc(F)ccc34)ccc2S(=O)(=O)N1CC1CCN(C)CC1` (single isomer, unassigned; (-)) [Example 79, (−)-5-(6-fluoro-1H-indol-3-yl)-3-methyl-2-((1-methylpiperidin-4-yl)methyl)-2,3-dihydrobenzo[d]isothiazole 1,1-dioxide] was 258 nM.

In turn, `CNC(=O)CN1C(C)c2cc(-c3c[nH]c4cc(F)ccc34)ccc2S1(=O)=O` (single isomer, unassigned; (-)) [Example 111, (−)-2-(5-(6-fluoro-1H-indol-3-yl)-3-methyl-1,1-dioxidobenzo[d]isothiazol-2(3H)-yl)-N-methylacetamide] returned a half-maximal inhibitory concentration (IC50) of 45 nM. For `CNS(=O)(=O)CCN1C(C)c2cc(-c3c[nH]c4cc(F)ccc34)ccc2S1(=O)=O` (single isomer, unassigned; (+)) [Example 60, (+)-2-(5-(6-fluoro-1H-indol-3-yl)-3-methyl-1,1-dioxidobenzo[d]isothiazol-2(3H)-yl)-N-methylethane-1-sulfonamide], the 50% inhibitory concentration (IC50) came to 133 nM. Then `CC1c2cc(-c3c[nH]c4cc(F)ccc34)ccc2S(=O)(=O)N1C[C@@]1(C)CCC(=O)N1` (single isomer, unassigned; (-)) [Example 83], with 152 nM; and `CC1c2cc(-c3c[nH]c4cc(F)ccc34)ccc2S(=O)(=O)N1CC[S+](C)[O-]` (single isomer, unassigned; (+)) [Example 55, (+)-5-(6-fluoro-1H-indol-3-yl)-3-methyl-2-(2-(methylsulfinyl)ethyl)-2,3-dihydrobenzo[d]isothiazole 1,1-dioxide], with 76 nM. Then `CC(C)C1NS(=O)(=O)c2ccc(-c3c[nH]c4cc(F)ccc34)cc21` (single isomer, unassigned; (-)) [Example 9, (−)-5-(6-fluoro-1H-indol-3-yl)-3-isopropyl-2,3-dihydrobenzo-[d]isothiazole 1,1-dioxide], with 82 nM; and `CC1c2cc(-c3c[nH]c4cc(F)ccc34)ccc2S(=O)(=O)N1CC1(C)COC(=O)N1` (single isomer, unassigned; (-)) [Example 88, (−)-4-((5-(6-fluoro-1H-indol-3-yl)-3-methyl-1,1-dioxidobenzo[d]isothiazol-2(3H)-yl)methyl)-4-methyloxazolidin-2-one], with 68 nM; and `CC1c2cc(-c3c[nH]c4cc(F)ccc34)ccc2S(=O)(=O)N1CCc1n[nH]c(=O)o1` (single isomer, unassigned; (-)) [Example 133, (−)-5-(2-(5-(6-fluoro-1H-indol-3-yl)-3-methyl-1,1-dioxidobenzo[d]isothiazol-2(3H)-yl)ethyl)-1,3,4-oxadiazol-2(3H)-one], with 383 nM. The value for `CNC(=O)C1NS(=O)(=O)c2ccc(-c3c[nH]c4cc(F)ccc34)cc21` (single isomer, unassigned; (-)) [Example 17, (−)-5-(6-fluoro-1H-indol-3-yl)-N-methyl-2,3-dihydrobenzo[d]isothiazole-3-carboxamide 1,1-dioxide] was 10000 nM. In the case of `O=S1(=O)c2ccc(-c3c[nH]c4cc(F)ccc34)cc2CN1C[C@H](O)CO` [Example 34, (S)-2-(2,3-dihydroxypropyl)-5-(6-fluoro-1H-indol-3-yl)-2,3-dihydrobenzo[d]isothiazole 1,1-dioxide], 103 nM corresponded to half-maximal inhibition (IC50). Then `CC1c2cc(-c3c[nH]c4cc(F)ccc34)ccc2S(=O)(=O)N1CCN1CCOC1=O` (single isomer, unassigned; (+)) [Example 69, (+)-3-(2-(5-(6-fluoro-1H-indol-3-yl)-3-methyl-1,1-dioxidobenzo[d]isothiazol-2(3H)-yl)ethyl)oxazolidin-2-one], with 264 nM; and `C[C@@H]1NS(=O)(=O)c2ccc(-c3c[nH]c4cc(F)ccc34)cc21` (single isomer, unassigned) [Example 2, (−)-5-(6-fluoro-1H-indol-3-yl)-3-methyl-2,3-dihydro-1,2-benzothiazole 1,1-dioxide], with 110 nM; and `CNC(=O)CCN1Cc2cc(-c3c[nH]c4cc(F)ccc34)ccc2S1(=O)=O` [Example 43, 3-(5-(6-fluoro-1H-indol-3-yl)-1,1-dioxidobenzo[d]isothiazol-2(3H)-yl)-N-methylpropanamide], with 136 nM. Then `CNCC1NS(=O)(=O)c2ccc(-c3c[nH]c4cc(F)ccc34)cc21` (single isomer, unassigned; (+)) [Example 138, (+)-5-(6-fluoro-1H-indol-3-yl)-3-((methylamino)methyl)-2,3-dihydrobenzo[d]isothiazole 1,1-dioxide], with 234 nM; and `CS(=O)(=O)NCC1NS(=O)(=O)c2ccc(-c3c[nH]c4cc(F)ccc34)cc21` (single isomer, unassigned; (+)) [Example 140, (+)-N-((5-(6-fluoro-1H-indol-3-yl)-1,1-dioxido-2,3-dihydrobenzo[d]isothiazol-3-yl)methyl)methanesulfonamide], with 285 nM; and `CC1c2cc(-c3c[nH]c4cc(F)ccc34)ccc2S(=O)(=O)N1C1CCNC(=O)C1` (single isomer, unassigned; (+)) [Example 121, (+)-4-(-5-(6-fluoro-1H-indol-3-yl)-3-methyl-1,1-dioxidobenzo[d]isothiazol-2(3H)-yl)piperidin-2-one], with 348 nM.
